Laboratory results: patent US8741836B2, “Polypeptides” (Novo Nordisk A/S, priority 2011, dated 2014)
Where two headings read alike, the source gives them in different places. Starred links: 1 amine or outer side, 2 acyl side, 3 side chain; linkers in the order of their positions; H or OH if unused. Positions of bridges follow the written chain, without caps; N, C: chain ends. Residues, ends and D or L forms follow the SMILES beside them. Groups on a side chain read outwards from the residue. *: point of attachment. C18 diacid = O=C(O)CCCCCCCCCCCCCCCCC(=O)*; γGlu = O=C(O)[C@H](CCC(=O)[*:2])N[*:1]; AEEA = NCCOCCOCC(=O)O

Key:
[1] = target: T1, human calcitonin receptor (Homo sapiens, UniProt P30988); experiment: Assay (II)a functional assay, human calcitonin receptor (CRE luciferase reporter in BHK cells); format: cell-based
T1 construct: expressed in transfected cells; CRE-luciferase reporter
T1 sequence (P30988 25-474): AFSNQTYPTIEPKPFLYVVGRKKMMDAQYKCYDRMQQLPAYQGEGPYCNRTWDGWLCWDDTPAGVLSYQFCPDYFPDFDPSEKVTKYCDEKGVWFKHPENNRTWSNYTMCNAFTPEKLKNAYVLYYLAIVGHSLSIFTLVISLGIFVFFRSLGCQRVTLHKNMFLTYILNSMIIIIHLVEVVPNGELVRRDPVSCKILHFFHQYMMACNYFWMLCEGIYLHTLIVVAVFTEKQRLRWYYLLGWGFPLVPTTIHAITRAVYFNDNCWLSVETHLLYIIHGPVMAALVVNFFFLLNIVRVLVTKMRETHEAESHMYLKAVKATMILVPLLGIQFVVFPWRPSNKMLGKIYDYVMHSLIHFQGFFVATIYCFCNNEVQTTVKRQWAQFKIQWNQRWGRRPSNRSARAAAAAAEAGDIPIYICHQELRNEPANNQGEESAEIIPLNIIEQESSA
From the text: (§1) 1. Luciferase Assay Outline
(§2) Activation of calcitonin and amylin (coexpression of calcitonin receptor and receptor activity modifying proteins (RAMP)) receptors lead to increased intracellular concentrations of cAMP. Consequently, transcription is activated by promoters containing multiple copies of the cAMP response element (CRE). It is thus possible to measure amylin activity by the use of a CRE luciferase reporter gene introduced into BHK cells also expressing calcitonin or amylin receptors.
(§3) A BHK570 cell line was stably transfected with the human calcitonin receptor and a CRE-responsive luciferase reporter gene. The cell line was further transfected with RAMP-3, using standard methods. This turns the calcitonin receptor into an amylin 3(a) receptor. Methotrexate, Neomycin, and Hygromycin are selection markers for luciferase, the calcitonin receptor, and RAMP-3, respectively.
(§4) To perform activity assays, BHK calcitonin (a) receptor- or amylin 3(a)-receptor/CRE-luc cells were seeded in white 96 well culture plates at a density of about 20.000 cells/well. […] After incubation overnight at 37° C. and 5% CO2, the growth medium was replaced by 50 μl/well assay medium (DMEM (without phenol red), Glutamax™, 10% FBS, and 10 mM Hepes, pH 7.4). Further, 50 μl/well of standard or sample in assay buffer were added. After 3 hours incubation at 37° C. and 5% CO2, the assay medium with standard or sample were removed and replaced by 100 μl/well PBS. Further, 100 μl/well LucLite™ was added. The plates were sealed and incubated at room temperature for 30 minutes. Finally, luminescence was measured on a TopCounter (Packard) in SPC (single photon counting) mode.

[2] = Assay (III) ThT fibrillation assay for physical stability; format: physicochemical
Method in brief: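 Freshly prepared, pH-adjusted formulations with 1 μM ThT incubated at 37 °C under 960 rpm orbital shaking (1 mm), fluorescence (ex 444, em 485 nm) read every 20 min. […] Peptide content before and after measured by reverse-phase HPLC against pramlintide standard.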

[3] = target: T2, human amylin 3(a) receptor (human calcitonin receptor + RAMP-3) (Homo sapiens, UniProt O60896+P30988); experiment: Assay (II)a functional assay, human amylin receptor (CRE luciferase reporter in BHK cells); format: cell-based
T2 construct: expressed in transfected cells; CRE-luciferase reporter
T2 sequence (P30988 25-474): T1 sequence (P30988 25-474)
T2 sequence (O60896 24-148 partner): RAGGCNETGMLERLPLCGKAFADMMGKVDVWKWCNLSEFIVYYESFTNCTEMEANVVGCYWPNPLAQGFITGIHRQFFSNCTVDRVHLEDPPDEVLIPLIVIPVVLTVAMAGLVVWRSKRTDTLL
From the text: as §1, §2, §3, §4

EC50 ([1]; Table 7, human calcitonin (CTa) receptor): 0.216 nM | EC50 ([1]; Table 11, human calcitonin receptor, read-out: CTa receptor human EC50): 0.216 nM | ThT pH 4.0 lag time (physical stability in fibrillogenesis assay) ([2]; pH 4.0): >45 h | ThT pH 4.0 lag time ([2]; pH 4.0, ThT fibrillation assay): >45 h | EC50 [3]: 0.184 nM | EC50 ([3]; Table 4): 0.184 nM | EC50 ([3]; Table 5): 0.184 nM | EC50 ([3]; Table 6, human amylin receptor): 0.184 nM | EC50 ([3]; Table 7, human amylin receptor): 0.184 nM | EC50 ([3]; Table 8, human amylin receptor): 0.184 nM | EC50 ([3]; Table 11, human amylin receptor): 0.184 nM
Structure (SMILES): CC[C@H](C)[C@H](NC(=O)[C@@H]1CCCN1C(=O)CNC(=O)[C@H](Cc1ccccc1)NC(=O)[C@H](CC(N)=O)NC(=O)[C@H](CCCCNC(=O)COCCOCCNC(=O)COCCOCCNC(=O)CC[C@H](NC(=O)CCCCCCCCCCCCCCCCC(=O)O)C(=O)O)NC(=O)[C@H](CO)NC(=O)[C@H](CO)NC(=O)[C@H](Cc1c[nH]cn1)NC(=O)[C@H](Cc1c[nH]cn1)NC(=O)[C@H](CC(C)C)NC(=O)[C@H](Cc1ccccc1)NC(=O)[C@H](CCC(=O)O)NC(=O)[C@H](C)NC(=O)[C@H](CC(C)C)NC(=O)[C@H](CCCNC(=N)N)NC(=O)[C@H](CCC(N)=O)NC(=O)[C@@H](NC(=O)[C@H](C)NC(=O)[C@@H]1CSSC[C@H](NC(=O)[C@@H](N)CCCCN)C(=O)N[C@@H](CC(N)=O)C(=O)N[C@@H]([C@@H](C)O)C(=O)N[C@@H](C)C(=O)N[C@@H]([C@@H](C)O)C(=O)N1)[C@@H](C)O)C(=O)N[C@@H](CC(C)C)C(=O)N1CCC[C@H]1C(=O)N1CCC[C@H]1C(=O)N[C@H](C(=O)N[C@@H](CC(N)=O)C(=O)N[C@H](C(=O)NCC(=O)N[C@@H](CO)C(=O)N[C@@H](CCC(=O)O)C(=O)N[C@H](C(=O)N[C@@H](Cc1ccc(O)cc1)C(N)=O)[C@@H](C)O)C(C)C)[C@@H](C)O [Example 74, N-epsilon21-[2-(2-{2-[2-(2-{2-[(S)-4-Carboxy-4-(17-carboxyheptadecanoylamino)butyrylamino]ethoxy}ethoxy)acetylamino]ethoxy}ethoxy)acetyl]-[Glu14,His17,Lys21,Glu35]-pramlintide] (H-KCNTATCATQRLAEFLHHSSK([AEEA-AEEA-γGlu-C18 diacid])NFGPILPPTNVGSETY-NH2; disulfide 2-7 (inferred); N-terminus and C-terminus assumed)
